Test results as given in paper PMC12531613, “Synthesis and Biological Evaluation of Novel 2‐(Piperidin‐4‐yl)‐1,2,3,4‐tetrahydroisoquinoline and 2‐(Piperidin‐4‐yl)decahydroisoquinoline Antimycotics” (Archiv Der Pharmazie, 2025).
≈ marks a conversion by molar mass, not a printed value. Like-named read-outs stand apart in the source and are kept apart here.

Columns and labels:
Format in all cases: cell-based
[1] = tested on: R. microsporus; assay: MIC90 growth inhibition of molds (EUCAST), R. microsporus; settings: Rhizopus microsporus
Experimental: (§1) Determination of MICs (minimal inhibitory concentration) against Candida species was carried out according to the European Committee of Antifungal Susceptibility Testing. Concentration of yeast cells was determined by photometer and adjusted to a turbidity of 0.5 according to McFarland standard. MIC90 was determined by microdilution plate reader (Sunrise Tecan) at 450 nm, after 24 h incubation at 37°C. MIC90 was defined as the minimal concentration of chemical causing 90% growth inhibition, respectively. Growth inhibition of molds was determined by eye and microscopically, following EUCAST guidelines. All substances were dissolved in DMSO and diluted in RPMI 1640 medium, containing 2% glucose. All assays were carried out twice.

[2] = tested on: C. albicans; assay: MIC90 microdilution (EUCAST), C. albicans; settings: Candida albicans, 24 h
Experimental: as §1

[3] = tested on: A. fumigatus (R7); assay: MIC90 growth inhibition of molds (EUCAST), A. fumigatus (R7); settings: Aspergillus fumigatus
Experimental: as §1

[4] = tested on: A. fumigatus (A65); assay: MIC90 growth inhibition of molds (EUCAST), A. fumigatus (A65); settings: Aspergillus fumigatus, RPMI 1640, 2% glucose, read by eye and microscopically
Experimental: Determination of MICs (minimal inhibitory concentration) against Candida species was carried out according to the European Committee of Antifungal Susceptibility Testing. Concentration of yeast cells was determined by photometer and adjusted to a turbidity of 0.5 according to McFarland standard. […] Growth inhibition of molds was determined by eye and microscopically, following EUCAST guidelines. […] All assays were carried out twice.

[5] = MTT cytotoxicity assay against HL 60 cells; settings: human, HL-60 cells (human leukemia cells); HL 60 cell line; MTT assay; read-out: IC50 cytotoxicity
Experimental: The cytotoxicity of the active compounds was checked in an MTT assay against human HL 60 cells. […] Although, this corresponds to the MIC range that would be needed in treatment, the values are within the range observed for commonly used antimycotics such as amorolfine and posaconazole. All active compounds were evaluated for their biopharmaceutical behavior and drug‐likeness using the online program SwissADME [26] and should show oral bioavailability according to the Lipinski rules of five.
HL‐60 cells (human leukemia cells, DSM No. ACC3) were obtained from DSMZ (German Collection of Microorganisms and Cell Cultures, Braunschweig, Germany) and cultivated in RPMI 1640 medium with 10% fetal bovine serum (FBS), both from PAA Laboratories, Cölbe, Germany) without the addition of antibiotics at 37°C in a humidified atmosphere containing 5% CO2. The assay was performed according to lit.

[6] = tested on: C. krusei; assay: MIC90 microdilution (EUCAST), C. krusei; settings: Pichia kudriavzevii, 24 h
Experimental: as §1

[7] = tested on: A. fumigatus (R16); assay: MIC90 growth inhibition of molds (EUCAST), A. fumigatus (R16); settings: Aspergillus fumigatus
Experimental: as §1

[8] = tested on: Yarrowia lipolytica; assay: MIC100 microdilution assay against Yarrowia lipolytica
Experimental: In previous research we found a good correlation between MIC values against Yarrowia lipolytica and pathogenic Candida species.
Determination of MICs against Yarrowia lipolytica (DSMZ, Braunschweig, Germany) was carried out according to lit. Yarrowia lipolytica was cultivated in AC‐agar (Sigma Aldrich). Concentration of yeast cells was determined by photometer and adjusted to a turbidity of 0.5 according to McFarland standard at 600 nm. All substances were dissolved in DMSO or methanol.
Determination of MICs (minimal inhibitory concentration) against Yarrowia lipolytica was carried out according to Lit.^[13] Concentration of yeast cells was determined by photometer and adjusted to a turbitity of 0.5 according to McFarland Standard.

[9] = tested on: C. glabrata; assay: MIC90 microdilution (EUCAST), C. glabrata; settings: Nakaseomyces glabratus, 24 h
Experimental: as §1

[10] = tested on: R. arrhizus (oryzae); assay: MIC90 growth inhibition of molds (EUCAST), R. arrhizus (oryzae); settings: Rhizopus arrhizus
Experimental: as §1

[11] = 48 h, read-out: Biological Activity MIC Yarrowia lipolytica
[12] = read-out: MIC100 (molar value in brackets)

Row | Structure (SMILES) | MIC90 [1] | MIC90 [2] | MIC90 [3] | MIC90 [4] | IC50 [5] | MIC90 [6] | MIC90 [7] | MIC [8, 11] | MIC ([8]; 48 h, read-out: MIC100) | MIC90 [9] | MIC ([10]; read-out: MIC90) | MIC ([8]; microdilution, 48 h, 25°C, 600 nm, read-out: MIC100) | MIC ([8]; supplement table, MIC100, 48 h, 25°C, 600 nm, read-out: Biological Activity MIC Yarrowia lipolytica) | MIC [8, 12] | MIC90 [10]
1 | CCCCCCCCN1CCC(N2CCC3CCCCC3C2)CC1 (racemic) [6h, (±)‐2‐(1‐Octylpiperidin‐4‐yl)decahydroisoquinoline] | > 32 µg/mL | > 32 µg/mL | > 32 µg/mL | > 32 µg/mL | 75 µg/mL (≈ 224 µM) | 8 µg/mL (≈ 23.9 µM) | > 32 µg/mL | 3.1 µg/mL | 3.1 µg/mL | > 32 µg/mL | 32 µg/mL (≈ 95.6 µM) |  |  |  | 
2 | C1CC[C@H]2CN(C3CCNCC3)CC[C@@H]2C1 (racemic) [4c, (±)‐2‐(Piperidin‐4‐yl)decahydroisoquinoline] |  |  |  |  |  |  |  |  |  |  |  | > 100 µg/mL | > 100 µg/mL |  | 
3 | CCCCCCCCCCCC(=O)N1CCC(N2CCc3cc(OC)c(OC)cc3C2)CC1 [5f, 1‐[4‐(6,7‐Dimethoxy‐3,4‐dihydroisoquinolin‐2(1H)‐yl)piperidin‐1‐yl]dodecan‐1‐one] |  |  |  |  |  |  |  | > 100 µg/mL | > 100 µg/mL |  |  |  |  |  | 
4 | CC(C)(C)OC(=O)N1CCC(N2CCc3ccccc3C2)CC1 [3a, tert‐Butyl 4‐(3,4‐dihydroisoquinolin‐2(1H)‐yl)piperidine‐1‐carboxylate] |  |  |  |  |  |  |  | > 100 µg/mL | > 100 µg/mL |  |  |  |  |  | 
5 | CCCCCCCCN1CCC(N2CCc3cc(OC)c(OC)cc3C2)CC1 [6e, 6,7‐Dimethoxy‐2‐(1‐octylpiperidin‐4‐yl)‐1,2,3,4‐tetrahydroisoquinoline] | > 32 µg/mL | 32 µg/mL (≈ 82.3 µM) | > 32 µg/mL | > 32 µg/mL | > 100 µg/mL | 8 µg/mL (≈ 20.6 µM) | > 32 µg/mL | 1.6 µg/mL | 1.6 µg/mL | > 32 µg/mL |  |  |  | 4.1 µM | > 32 µg/mL
6 | COc1cc2c(cc1OC)CN(C1CCN(CCC(C)CCC=C(C)C)CC1)CC2 (racemic) [6j, (±)‐2‐[1‐(3,7‐Dimethyloct‐6‐en‐1‐yl)piperidin‐4‐yl]‐6,7‐dimethoxy‐1,2,3,4‐tetrahydroisoquinoline] | > 32 µg/mL | > 32 µg/mL | > 32 µg/mL | > 32 µg/mL | 75 µg/mL (≈ 181 µM) | 32 µg/mL (≈ 77.2 µM) | > 32 µg/mL | 3.1 µg/mL | 3.1 µg/mL | > 32 µg/mL |  |  |  | 7.5 µM | > 32 µg/mL
7 | CC[C@@H]([C@H](C)O)n1ncn(-c2ccc(N3CCN(c4ccc(OC[C@@H]5CO[C@@](Cn6cncn6)(c6ccc(F)cc6F)C5)cc4)CC3)cc2)c1=O [Posaconazole, reference compound] |  |  |  |  | 5 µg/mL (≈ 7.13 µM) |  |  |  |  |  |  |  |  |  | 
8 | CCCCCCCC(=O)N1CCC(N2CCc3ccccc3C2)CC1 [5b, 1‐[4‐(3,4‐Dihydroisoquinolin‐2(1H)‐yl)piperidin‐1‐yl]octan‐1‐one] |  |  |  |  |  |  |  | > 100 µg/mL | > 100 µg/mL |  |  |  |  |  | 
9 | CC(C)(C)OC(=O)N1CCC(N2CCC3CCCCC3C2)CC1 (centres unmarked) [3c, tert‐Butyl 4‐(octahydroisoquinolin‐2(1H)‐yl)piperidine‐1‐carboxylate] |  |  |  |  |  |  |  | > 100 µg/mL | > 100 µg/mL |  |  |  |  |  | 
10 | CCC(C)(C)c1ccc(CC(C)CN2C[C@@H](C)O[C@@H](C)C2)cc1 (some centres unmarked) [Amorolfine, reference compound] |  |  |  |  | 17 µg/mL (≈ 53.5 µM) |  |  |  |  |  |  |  |  |  | 
11 | COc1cc2c(cc1OC)CN(C1CCN(Cc3ccccc3)CC1)CC2 [7b, 2‐(1‐Benzylpiperidin‐4‐yl)‐6,7‐dimethoxy‐1,2,3,4‐tetrahydroisoquinoline] | > 32 µg/mL | > 32 µg/mL | > 32 µg/mL | > 32 µg/mL |  | > 32 µg/mL | > 32 µg/mL | > 100 µg/mL | > 100 µg/mL | > 32 µg/mL |  |  |  |  | > 32 µg/mL
12 | CCCCN1CCC(N2CCc3cc(OC)c(OC)cc3C2)CC1 [6d, 2‐(1‐Butylpiperidin‐4‐yl)‐6,7‐dimethoxy‐1,2,3,4‐tetrahydroisoquinoline] | > 32 µg/mL | > 32 µg/mL | > 32 µg/mL | > 32 µg/mL | > 100 µg/mL | > 32 µg/mL | > 32 µg/mL | > 100 µg/mL | > 100 µg/mL | > 32 µg/mL |  |  |  |  | > 32 µg/mL
